Source: paper PMC8119466, “A screen of FDA-approved drugs identifies inhibitors of protein tyrosine phosphatase 4A3 (PTP4A3 or PRL-3)” (Scientific Reports, 2021)
Counter-ions that a name gives are not always drawn. Like-named read-outs stand apart in the source and are kept apart here.

Key:
Assay type in all cases: biochemical
recombinant PRL-3 = target: T1, recombinant PRL-3 (Homo sapiens, UniProt O75365); experiment: In vitro phosphatase assay (DiFMUP hydrolysis), PRL-3; also: test concentration or dose not given here
T1 construct: 6xHis (N, cleaved yes); made in house; host or cells: E. coli One Shot BL21 Star

recombinant PRL-1 = target: T2, recombinant PRL-1 (Homo sapiens, UniProt Q93096); experiment: In vitro phosphatase assay (DiFMUP hydrolysis), PRL-1; also: test concentration or dose not given here
T2 construct: 6xHis (N, cleaved yes); made in house; host or cells: E. coli One Shot BL21 Star
T2 sequence (Q93096 1-173): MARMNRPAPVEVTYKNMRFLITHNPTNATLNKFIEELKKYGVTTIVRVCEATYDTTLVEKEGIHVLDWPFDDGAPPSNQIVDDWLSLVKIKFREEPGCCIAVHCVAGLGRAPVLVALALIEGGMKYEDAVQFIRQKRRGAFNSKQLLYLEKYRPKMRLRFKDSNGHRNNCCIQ

recombinant PRL-2 = target: T3, recombinant PRL-2 (Homo sapiens, UniProt Q12974); experiment: In vitro phosphatase assay (DiFMUP hydrolysis), PRL-2;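 also: PRL-2 activity read as DiFMUP hydrolysis after 20 min at room temperature with drug, enzyme first pre-reduced at 4 °C for 20 min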
T3 construct: 6xHis (N, cleaved yes); made in house; host or cells: E. coli One Shot BL21 Star
T3 sequence (Q12974 1-167): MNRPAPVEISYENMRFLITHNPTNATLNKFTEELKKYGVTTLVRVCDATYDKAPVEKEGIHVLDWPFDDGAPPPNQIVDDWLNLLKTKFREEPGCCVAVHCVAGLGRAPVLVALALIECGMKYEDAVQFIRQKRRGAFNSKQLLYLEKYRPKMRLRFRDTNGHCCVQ

[1] = FDA-approved drug screen, compared to DMSO
[2] = FDA-approved drug screen, activity compared to DMSO

T1 sequence (O75365 whole entry): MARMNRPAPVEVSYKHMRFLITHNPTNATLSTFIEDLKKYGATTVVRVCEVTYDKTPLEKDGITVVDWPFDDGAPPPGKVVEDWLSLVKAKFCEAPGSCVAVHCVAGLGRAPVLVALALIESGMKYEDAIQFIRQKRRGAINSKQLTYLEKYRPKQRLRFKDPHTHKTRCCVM

| Structure (SMILES) | % Phosphatase Activity (compared to DMSO) PRL-3 (recombinant PRL-3; [1]) [%] | % Phosphatase Activity (compared to DMSO) PRL-1 (recombinant PRL-1; [1]) [%] | % Phosphatase Activity (compared to DMSO) PRL-2 (recombinant PRL-2; [1]) [%] | also measured |
| --- | --- | --- | --- | --- |
| O=c1[nH]cnc2c1ncn2[C@H]1CC[C@@H](CO)O1 [Didanosine] | 85 | 95 | 114 |  |
| CO/N=C(/C(=O)N[C@@H]1C(=O)N2C(C(=O)[O-])=C(CSc3nc(=O)c([O-])nn3C)CS[C@H]12)c1csc(N)n1.O.O.O.[Na+].[Na+] [Ceftriaxone Sodium Trihydrate] | 108 | 102 | 115 |  |
| COc1ccccc1OCC(O)CO (stereo not drawn) [Guaifenesin] | 100 | 102 | 92 |  |
| CCCc1nc(C(C)(C)O)c(C(=O)OCc2oc(=O)oc2C)n1Cc1ccc(-c2ccccc2-c2nnn[nH]2)cc1 [Olmesartan Medoxomil] | 76 | 97 | 93 |  |
| Cc1cn(-c2cc(NC(=O)c3ccc(C)c(Nc4nccc(-c5cccnc5)n4)c3)cc(C(F)(F)F)c2)cn1 [Nilotinib (AMN-107)] | 76 | 83 | 92 |  |
| Cc1cccc(C)c1NC(=O)C1CCCCN1C (stereo not drawn) [Mepivacaine HCl] | 87 | 86 | 104 |  |
| CCOc1cc(CC(=O)N[C@@H](CC(C)C)c2ccccc2N2CCCCC2)ccc1C(=O)O [Repaglinide] | 87 | 96 | 81 |  |
| COC(c1ccccc1)(c1ccccc1)[C@H](Oc1nc(C)cc(C)n1)C(=O)O [Ambrisentan] | 78 | 94 | 99 |  |
| CCC1(c2cccc(O)c2)CCCCN(C)C1 (stereo not drawn) [Meptazinol HCl] | 84 | 106 | 124 |  |
| Cc1cn([C@@H]2C[C@@H](O)[C@H](CO)O2)c(=O)[nH]c1=O [Telbivudine] |  |  |  | % Phosphatase Activity (compared to DMSO) PRL-3 (recombinant PRL-3; [2]): 80%; % Phosphatase Activity (compared to DMSO) PRL-1 (recombinant PRL-1; [2]): 106%; % Phosphatase Activity (compared to DMSO) PRL-2 (recombinant PRL-2; [2]): 89% |
| CC(=O)O[C@H]1Cc2ccccc2N(C(N)=O)c2ccccc21 [Eslicarbazepine Acetate] | 75 | 94 | 117 |  |
| C=C1CC[C@H](O)C/C1=C/C=C1\CCC[C@]2(C)[C@@H]([C@H](C)/C=C/[C@H](C)C(C)C)CC[C@@H]12 [Vitamin D2] |  |  |  | % Phosphatase Activity (compared to DMSO) PRL-3 (recombinant PRL-3; [2]): 84%; % Phosphatase Activity (compared to DMSO) PRL-1 (recombinant PRL-1; [2]): 95%; % Phosphatase Activity (compared to DMSO) PRL-2 (recombinant PRL-2; [2]): 99% |
| CCC1=C(C)CN(C(=O)NCCc2ccc(S(=O)(=O)NC(=O)N[C@H]3CC[C@H](C)CC3)cc2)C1=O [Glimepiride] | 76 | 84 | 88 |  |
| CC(C(=O)[O-])c1cccc(Oc2ccccc2)c1.CC(C(=O)[O-])c1cccc(Oc2ccccc2)c1.[Ca+2] (stereo not drawn) [Fenoprofen Calcium] | 95 | 82 | 80 |  |
| CC1(C)[C@H](C(=O)O)N2C(=O)C[C@H]2S1(=O)=O [Sulbactam sodium] |  |  |  | % Phosphatase Activity (compared to DMSO) PRL-3 (recombinant PRL-3; [2]): 89%; % Phosphatase Activity (compared to DMSO) PRL-1 (recombinant PRL-1; [2]): 111%; % Phosphatase Activity (compared to DMSO) PRL-2 (recombinant PRL-2; [2]): 112% |
| Cc1ccc(-c2ncc(Cl)cc2-c2ccc(S(C)(=O)=O)cc2)cn1 [Etoricoxib] | 91 | 93 | 102 |  |
| Cc1onc(-c2c(Cl)cccc2Cl)c1C(=O)N[C@@H]1C(=O)N2[C@@H]1SC(C)(C)[C@@H]2C(=O)O [Dicloxacillin Sodium] | 85 | 106 | 121 |  |

| Structure (SMILES) | % Phosphatase Activity (compared to DMSO) PRL-3 (recombinant PRL-3; [1]) [%] | % Phosphatase Activity (compared to DMSO) PRL-1 (recombinant PRL-1; [1]) [%] | % Phosphatase Activity (compared to DMSO) PRL-2 (recombinant PRL-2; [1]) [%] | also measured |
| --- | --- | --- | --- | --- |
| CN(C)C(=O)c1cc2cnc(Nc3ccc(N4CCNCC4)cn3)nc2n1C1CCCC1 [LEE011] | 98 | 103 | 84 |  |
| C=C1/C(=C\C=C2/CCC[C@]3(C)[C@@H]([C@H](C)CCCC(C)C)CC[C@@H]23)C[C@@H](O)C[C@@H]1O [Alfacalcidol] | 75 | 99 | 82 |  |
| Cn1c([N+](=O)[O-])cnc1COC(N)=O [Ronidazole] | 62 | 86 | 95 |  |
| NC1=NCC2c3ccccc3Cc3ccccc3N12 (stereo not drawn) [Epinastine HCl] |  |  |  | % Phosphatase Activity (compared to DMSO) PRL-3 (recombinant PRL-3): 80%; % Phosphatase Activity (compared to DMSO) PRL-1 (recombinant PRL-1): 96%; % Phosphatase Activity (compared to DMSO) PRL-2 (recombinant PRL-2): 109% |
| CCN(CC)CC(=O)Nc1c(C)cccc1C [Lidocaine hydrochloride] | 84 | 97 | 88 |  |
| CC(C)(C)NC(=O)[C@H]1CC[C@H]2[C@@H]3CC[C@H]4NC(=O)C=C[C@]4(C)[C@H]3CC[C@]12C [Finasteride] | 81 | 93 | 87 |  |
| O=C(O)c1cc(/N=N/c2ccc(S(=O)(=O)Nc3ccccn3)cc2)ccc1O [Sulfasalazine] |  |  |  | % Phosphatase Activity (compared to DMSO) PRL-3 (recombinant PRL-3; [2]): 59%; % Phosphatase Activity (compared to DMSO) PRL-1 (recombinant PRL-1; [2]): 67%; % Phosphatase Activity (compared to DMSO) PRL-2 (recombinant PRL-2; [2]): 50% |
| O=C1C2CC3CC1CC(O)(C3)C2 [Idramantone] | 86 | 105 | 113 |  |
| Nc1nc2[nH]cc(CCc3ccc(C(=O)N[C@@H](CCC(=O)O)C(=O)O)cc3)c2c(=O)[nH]1 [Pemetrexed] | 98 | 92 | 86 |  |
| CC(C(=O)O)c1ccc(-c2ccccc2)c(F)c1 (stereo not drawn) [Flurbiprofen] | 73 | 97 | 89 |  |
| COc1ccc2c(c1)c(CC(=O)O)c(C)n2C(=O)c1ccc(Cl)cc1 [Indomethacin] | 71 | 96 | 106 |  |
| O=c1oc2c(O)c(O)cc3c(=O)oc4c(O)c(O)cc1c4c23 [Ellagic acid] | 68 | 98 | 89 |  |
| CN(C)C(=O)Oc1ccc[n+](C)c1 [Pyridostigmine Bromide] | 77 | 106 | 109 |  |
| COC(=O)N[C@H](C(=O)N1CC2(CC2)C[C@H]1c1nc(-c2ccc3c(c2)C(F)(F)c2cc(-c4ccc5[nH]c([C@@H]6[C@H]7CC[C@H](C7)N6C(=O)[C@@H](NC(=O)OC)C(C)C)nc5c4)ccc2-3)c[nH]1)C(C)C [Ledipasvir (GS5885)] | 144 | 174 | 115 |  |
| Clc1cccc(Cl)c1N=C1NCCN1 [Clonidine HCl] |  |  |  | % Phosphatase Activity (compared to DMSO) PRL-3 (recombinant PRL-3): 85%; % Phosphatase Activity (compared to DMSO) PRL-1 (recombinant PRL-1): 118%; % Phosphatase Activity (compared to DMSO) PRL-2 (recombinant PRL-2): 115% |
| CC[C@@]1(O)C(=O)OCc2c1cc1n(c2=O)Cc2cc3c(CN(C)C)c(O)ccc3nc2-1 [Topotecan HCl] |  |  |  | % Phosphatase Activity (compared to DMSO) PRL-3 (recombinant PRL-3; [2]): 140%; % Phosphatase Activity (compared to DMSO) PRL-1 (recombinant PRL-1; [2]): 168%; % Phosphatase Activity (compared to DMSO) PRL-2 (recombinant PRL-2; [2]): 192% |
